HELM strings list units from the 5' end as sugar, base in round brackets, then linkage (d deoxyribose, r ribose, m 2'-O-methyl, p phosphodiester). Strings are as the collection lists them, not checked against the first reports. ss, as = sense and antisense strand; [lna] = locked nucleic acid (LNA); [s4r] = 4'-thioribose; [fl2r] = 2'-fluoro

The values that follow come from the OligoGym collection.
Further: test system not given here.

For this data set the following is noted: siRNA.
Substance “RNA1{m(A)p.r(G)p.m(C)p.r(G)p.m(A)p.r(U)p.m(C)p.r(C)p.m(C)p.r(G)p.m(A)p.r(A)p.m(C)p.r(A)p.m(A)p.r(G)p.m(U)p.r(A)p.m(U)p.r(T)p.r(T)}|RNA2{r(A)p.r(U)p.r(A)p.m(C)p.r(U)p.r(U)p.r(G)p.r(U)p.r(U)p.m(C)p.r(G)p.r(G)p.r(G)p.r(A)p.r(U)p.m(C)p.r(G)p.m(C)p.r(U)p.r(T)p.r(T)}$$$RNA1{StrandType:ss}|RNA2{StrandType:as}$” showed a target mRNA knockdown of 34%.
Substance “RNA1{r(C)p.r(U)p.r(U)p.r(A)p.r(C)p.r(G)p.r(C)p.r(U)p.r(G)p.r(A)p.r(G)p.r(U)p.r(A)p.r(C)p.r(U)p.r(U)p.r(C)p.r(G)p.r(A)p.r(T)p.r(T)}|RNA2{r(T)p.r(C)p.r(G)p.r(A)p.r(A)p.r(G)p.r(U)p.r(A)p.r(C)p.r(U)p.r(C)p.r(A)p.r(G)p.r(C)p.[lna](G)p.r(U)p.r(A)p.r(A)p.r(G)p.[lna](T)p.[lna](T)}$$$RNA1{StrandType:ss}|RNA2{StrandType:as}$” came in with a target mRNA knockdown of 87%.
Substance “RNA1{r(A)p.r(A)p.r(C)p.r(U)p.r(C)p.r(U)p.r(A)p.r(C)p.[fl2r](U)p.r(G)p.r(U)p.r(G)p.r(G)p.r(A)p.r(G)p.r(U)p.r(C)p.r(G)p.r(G)p.r(T)p.r(T)}|RNA2{r(C)p.r(C)p.r(G)p.r(A)p.r(C)p.r(U)p.r(C)p.[fl2r](C)p.r(A)p.r(C)p.r(A)p.r(G)p.[fl2r](U)p.r(A)p.r(G)p.r(A)p.r(G)p.r(U)p.r(U)p.r(T)p.r(T)}$$$RNA1{StrandType:ss}|RNA2{StrandType:as}$” gave a target mRNA knockdown of 72%.
Consider “RNA1{[fl2r](C)p.r(A)p.r(G)p.r(A)p.r(G)p.[fl2r](C)p.r(A)p.r(A)p.[fl2r](U)p.[fl2r](U)p.r(G)p.[fl2r](U)p.[fl2r](U)p.[fl2r](U)p.r(A)p.[fl2r](C)p.[fl2r](C)p.[fl2r](U)p.r(A)p.r(T)p.r(T)}|RNA2{[fl2r](U)p.r(A)p.r(G)p.r(G)p.[fl2r](U)p.r(A)p.r(A)p.r(A)p.[fl2r](C)p.r(A)p.r(A)p.[fl2r](U)p.[fl2r](U)p.r(G)p.[fl2r](C)p.[fl2r](U)p.[fl2r](C)p.r(U)p.r(G)p.r(T)p.r(T)}$$$RNA1{StrandType:ss}|RNA2{StrandType:as}$”, for which the target mRNA knockdown was determined as 72%.
In turn, “RNA1{[s4r](C)p.[s4r](G)p.r(U)p.r(A)p.r(C)p.r(G)p.r(C)p.r(G)p.r(G)p.r(A)p.r(A)p.r(U)p.r(A)p.r(C)p.r(U)p.r(U)p.r(C)p.r(G)p.r(A)p.r(T)p.r(T)}|RNA2{r(U)p.r(C)p.r(G)p.r(A)p.r(A)p.r(G)p.r(U)p.r(A)p.r(U)p.r(U)p.r(C)p.r(C)p.r(G)p.r(C)p.r(G)p.r(U)p.r(A)p.[s4r](C)p.[s4r](G)p.r(T)p.r(T)}$$$RNA1{StrandType:ss}|RNA2{StrandType:as}$” gave a target mRNA knockdown of 91.3%.
The substance “RNA1{m(G)p.r(A)p.m(A)p.r(A)p.m(A)p.r(C)p.m(G)p.r(C)p.m(U)p.r(U)p.m(G)p.r(U)p.m(A)p.r(A)p.m(A)p.r(G)p.m(C)p.r(C)p.m(G)p.r(T)p.r(T)}|RNA2{r(C)p.r(G)p.r(G)p.r(C)p.r(U)p.r(U)p.r(U)p.m(A)p.r(C)p.m(A)p.m(A)p.r(G)p.r(C)p.r(G)p.r(U)p.r(U)p.r(U)p.r(U)p.r(C)p.r(T)p.r(T)}$$$RNA1{StrandType:ss}|RNA2{StrandType:as}$” came in with a target mRNA knockdown of 23%.
“RNA1{r(G)p.r(A)p.r(G)p.[fl2r](U)p.r(A)p.r(U)p.r(U)p.r(U)p.r(C)p.r(C)p.r(G)p.r(C)p.r(U)p.r(G)p.r(G)p.r(A)p.r(A)p.r(C)p.r(U)p.r(T)p.r(T)}|RNA2{r(A)p.r(G)p.r(U)p.r(U)p.r(C)p.r(C)p.r(A)p.r(G)p.r(C)p.r(G)p.r(G)p.r(A)p.r(A)p.r(A)p.[fl2r](U)p.r(A)p.r(C)p.r(U)p.r(C)p.r(T)p.r(T)}$$$RNA1{StrandType:ss}|RNA2{StrandType:as}$” showed a target mRNA knockdown of 75%.
“RNA1{r(G)p.[fl2r](A)p.r(A)p.r(A)p.[fl2r](C)p.[fl2r](U)p.r(G)p.r(G)p.[fl2r](U)p.[fl2r](A)p.[fl2r](C)p.[fl2r](U)p.[fl2r](U)p.[fl2r](U)p.[fl2r](C)p.[fl2r](C)p.[fl2r](C)p.[fl2r](C)p.[fl2r](C)p.r(T)p.r(T)}|RNA2{r(G)p.r(G)p.r(G)p.r(G)p.r(G)p.r(A)p.r(A)p.r(A)p.r(G)p.r(U)p.r(A)p.r(C)p.r(C)p.r(A)p.r(G)p.r(U)p.r(U)p.r(U)p.r(C)p.r(T)p.r(T)}$$$RNA1{StrandType:ss}|RNA2{StrandType:as}$” registered a target mRNA knockdown of 60%.
Consider “RNA1{r(G)p.r(G)p.r(G)p.r(A)p.r(G)p.r(G)p.r(A)p.r(U)p.r(G)p.r(A)p.r(C)p.r(A)p.r(A)p.r(A)p.r(G)p.r(A)p.r(A)p.r(G)p.r(C)p.r(T)p.r(T)}|RNA2{r(G)p.[fl2r](C)p.r(U)p.r(U)p.[fl2r](C)p.r(U)p.r(U)p.r(U)p.r(G)p.r(U)p.[fl2r](C)p.r(A)p.r(U)p.[fl2r](C)p.[fl2r](C)p.r(U)p.[fl2r](C)p.[fl2r](C)p.[fl2r](C)p.r(T)p.r(T)}$$$RNA1{StrandType:ss}|RNA2{StrandType:as}$”, for which the target mRNA knockdown came out at 37%.
Next, “RNA1{[lna](G)p.r(C)p.r(A)p.r(G)p.r(C)p.r(A)p.r(C)p.r(G)p.r(A)p.r(C)p.r(U)p.r(U)p.r(C)p.r(U)p.r(U)p.r(C)p.r(A)p.r(A)p.r(G)p.r(U)p.r(U)}|RNA2{r(C)p.[fl2r](U)p.r(U)p.r(G)p.r(A)p.r(A)p.r(G)p.r(A)p.r(A)p.r(G)p.r(U)p.r(C)p.r(G)p.r(U)p.r(G)p.r(C)p.r(U)p.r(G)p.r(C)p.r(U)p.r(U)}$$$RNA1{StrandType:ss}|RNA2{StrandType:as}$”: 69.3%; “RNA1{r(G)p.r(A)p.r(C)p.r(G)p.r(U)p.r(A)p.r(A)p.r(A)p.r(C)p.r(G)p.r(G)p.r(C)p.r(C)p.r(A)p.r(C)p.r(A)p.r(A)p.r(G)p.r(U)p.r(U)p.r(C)}|RNA2{r(A)p.r(C)p.[lna](T)p.r(U)p.r(G)p.[lna](T)p.r(G)p.r(G)p.r(C)p.r(C)p.r(G)p.r(U)p.r(U)p.[lna](T)p.r(A)p.r(C)p.r(G)p.[lna](T)p.r(C)p.[lna](G)p.[lna](C)}$$$RNA1{StrandType:ss}|RNA2{StrandType:as}$”: 0%.
“RNA1{m(C)p.r(U)p.m(C)p.r(C)p.m(C)p.r(C)p.m(A)p.r(G)p.m(U)p.r(C)p.m(U)p.r(C)p.m(U)p.r(C)p.m(U)p.r(U)p.m(A)p.r(A)p.m(A)p.r(T)p.r(T)}|RNA2{r(U)p.r(U)p.r(U)p.r(A)p.r(A)p.r(G)p.r(A)p.r(G)p.r(A)p.r(G)p.r(A)p.r(C)p.r(U)p.r(G)p.r(G)p.r(G)p.r(G)p.r(A)p.r(G)p.r(T)p.r(T)}$$$RNA1{StrandType:ss}|RNA2{StrandType:as}$” showed a target mRNA knockdown of 51%.
“RNA1{r(A)p.r(G)p.r(C)p.m(C)p.r(A)p.r(C)p.r(A)p.r(U)p.r(U)p.r(U)p.r(C)p.r(U)p.m(A)p.r(G)p.r(G)p.r(A)p.r(G)p.r(A)p.r(U)p.r(T)p.r(T)}|RNA2{r(A)p.r(U)p.r(C)p.r(U)p.r(C)p.r(C)p.r(U)p.r(A)p.r(G)p.r(A)p.r(A)p.r(A)p.m(U)p.r(G)p.r(U)p.r(G)p.r(G)p.r(C)p.r(U)p.r(T)p.r(T)}$$$RNA1{StrandType:ss}|RNA2{StrandType:as}$” gave a target mRNA knockdown of 29%.
